Results from EP4664463A1, “COMPUTER-IMPLEMENTED METHOD FOR OLFACTORY PROPERTY PREDICTION” (Givaudan SA, priority 2024, dated 2025).
Like-named read-outs stand apart in the source and are kept apart here. Values belong to the compound of their own block, whether it stands above or below them.

Key:
OR5A2 [1] = biological target: T1, OR5A2 (Homo sapiens, UniProt Q8NGI9); test: Luciferase dose-response, wild-type vs changed C-terminus (SEQ ID NO: 86); type: cell-based
T1 construct: expressed in transfected cells; host or cells: HEK293T cells with stably integrated human RTP1S (V227I) and RTP2 (L220R)
T1 sequence (Q8NGI9 with tags, fused parts or gaps): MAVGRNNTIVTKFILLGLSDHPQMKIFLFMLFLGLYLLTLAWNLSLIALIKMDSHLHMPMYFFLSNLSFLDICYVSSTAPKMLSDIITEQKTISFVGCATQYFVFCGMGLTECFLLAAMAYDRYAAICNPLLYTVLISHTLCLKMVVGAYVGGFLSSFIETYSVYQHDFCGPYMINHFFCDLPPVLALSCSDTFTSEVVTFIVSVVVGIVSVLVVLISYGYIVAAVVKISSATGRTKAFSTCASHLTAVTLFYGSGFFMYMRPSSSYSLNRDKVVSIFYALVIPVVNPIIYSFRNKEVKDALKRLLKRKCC
From the text: (§1) To create an expression plasmid, an OR coding sequence fused at the end of TM7 to the desired C-terminus sequence was synthesized by a DNA synthesis service provider (BioCat GmbH, Germany) and inserted into pcDNA3.1(+) (Invitrogen, MA, USA) downstream of the CMV promoter sequence (SEQ ID NO: 82) using BamHI and Notl restriction sites. All the synthetic OR nucleotide sequences described below in Examples 1-15 further contained at their N-terminus a nucleotide sequence encoding a signal peptide (mmLucy-FLAG-rho, SeQ ID NOs: 80, 81) and at the C-terminus the bgh terminator sequence (SEQ ID NO: 83). All the OR expression plasmids also contain a Kozak sequence (GCCACC) between the BamHI restriction site and the start codon of the signal peptide. These plasmids thus contain a constitutively expressed OR gene.

OR5A2 [2] = biological target: T2, OR5A2 (Homo sapiens, UniProt Q8NGI9); test: as above; type: cell-based; remark: listed apart in the source
T2 construct: expressed in transfected cells; host or cells: HEK293T cells with stably integrated human RTP1S (V227I) and RTP2 (L220R)
T2 sequence (Q8NGI9 1-324): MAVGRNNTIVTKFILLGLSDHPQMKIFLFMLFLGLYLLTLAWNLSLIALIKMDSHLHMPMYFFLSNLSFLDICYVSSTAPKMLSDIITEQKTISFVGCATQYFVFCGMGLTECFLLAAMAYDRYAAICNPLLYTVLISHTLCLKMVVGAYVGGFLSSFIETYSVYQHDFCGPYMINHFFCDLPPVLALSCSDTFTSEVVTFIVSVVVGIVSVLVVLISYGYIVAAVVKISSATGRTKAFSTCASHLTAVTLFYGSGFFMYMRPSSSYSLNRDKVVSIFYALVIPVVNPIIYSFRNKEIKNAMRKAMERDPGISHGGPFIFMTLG
From the text: as §1

OR5A2 [3] = test: as above; type: cell-based, human
From the text: as §1

OR5A1 [4] = biological target: T3, OR5A1 (Homo sapiens, UniProt Q8NGJ0, I300V); test: as above; type: cell-based
T3 construct: expressed in transfected cells; host or cells: HEK293T cells stably expressing human RTP1S (V227I) and RTP2 (L220R)
T3 sequence (Q8NGJ0 with tags, fused parts or gaps I300V): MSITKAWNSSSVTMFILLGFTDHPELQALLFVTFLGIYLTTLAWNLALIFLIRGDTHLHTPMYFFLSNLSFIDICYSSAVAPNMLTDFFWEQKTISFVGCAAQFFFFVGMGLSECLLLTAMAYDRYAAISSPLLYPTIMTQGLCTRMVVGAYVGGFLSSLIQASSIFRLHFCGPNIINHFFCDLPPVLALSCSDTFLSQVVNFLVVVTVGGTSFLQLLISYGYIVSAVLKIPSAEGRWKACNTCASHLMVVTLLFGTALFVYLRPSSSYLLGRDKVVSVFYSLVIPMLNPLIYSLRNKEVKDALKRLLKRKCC

OR5A1 [5] = biological target: T4, OR5A1 (Homo sapiens, UniProt Q8NGJ0); test: as above; type: cell-based
T4 construct: expressed in transfected cells; host or cells: HEK293T cells stably expressing human RTP1S (V227I) and RTP2 (L220R)

OR5A1 [6] = test: as above; type: cell-based, human
OR10J5 = biological target: T5, OR10J5 (Homo sapiens, UniProt Q8NHC4); test: OR10J5 (SEQ ID NO: 86) dose-response of isomers, EC20% relative to positive control; type: cell-based; conditions: 20 % of positive control (100µM Mahonial); OR10J5 with SEQ ID NO: 86
T5 construct: expressed in transfected cells; host or cells: HEK293T cells stably expressing human RTP1S (V227I) and RTP2 (L220R)
T5 sequence (Q8NHC4 with tags, fused parts or gaps): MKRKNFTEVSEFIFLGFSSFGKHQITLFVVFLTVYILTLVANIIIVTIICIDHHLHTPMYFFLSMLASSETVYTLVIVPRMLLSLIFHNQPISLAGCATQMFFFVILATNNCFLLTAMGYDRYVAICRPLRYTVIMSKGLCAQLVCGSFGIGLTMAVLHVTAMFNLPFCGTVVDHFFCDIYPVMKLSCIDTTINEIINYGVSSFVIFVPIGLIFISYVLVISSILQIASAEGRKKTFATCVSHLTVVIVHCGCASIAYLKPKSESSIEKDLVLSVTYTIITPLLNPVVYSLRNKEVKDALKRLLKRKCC
From the text: Once a strong ligand is known for a given OR and the concentration of that ligand for maximal OR activation, this ligand (tested at its maximal inducing concentration) can be introduced as a positive control into the experiment, and fold-luciferase can be reported as % activation of the positive control according to the following formula: % activation = (Fold luciferase activation test compound−1)/(Fold luciferase activation positive control−1) × 100 [formula]
Activation of OR10J5 with the C-terminal domain of SEQ ID NO: 86 by (S,E)-10-hydroxy-4,8-dimethyldec-4-enal or (R,E)-10-hydroxy-4,8-dimethyldec-4-enal was measured in a dose-response analysis.
Potency of the two tested OR10J5 ligands is expressed as the EC20% value, which is the concentration that leads to a 20 % increase of the luciferase activity relative to the positive control (100µM, Mahonial; (4E)-9-hydroxy-5,9-dimethyl-4-Decenal). […] Because of the difference in EC20%, a much lower concentration of the (S,E)-isomer is needed to activate the receptor compared to the concentration needed of the (R,E)-isomer. […] This example further illustrates the usefulness of the improved assay to determine the most odor-active isomers.

OR2T4 = biological target: T6, OR2T4 (Homo sapiens, UniProt Q8NH00, D328E/G331D/M330K); test: cell-based; type: cell-based; conditions: OR2T4 with SEQ ID NO: 86
T6 construct: expressed in transfected cells; host or cells: HEK293T cells stably expressing human RTP1S (V227I) and RTP2 (L220R)
T6 sequence (Q8NH00 with tags, fused parts or gaps D328E/M330K/G331D): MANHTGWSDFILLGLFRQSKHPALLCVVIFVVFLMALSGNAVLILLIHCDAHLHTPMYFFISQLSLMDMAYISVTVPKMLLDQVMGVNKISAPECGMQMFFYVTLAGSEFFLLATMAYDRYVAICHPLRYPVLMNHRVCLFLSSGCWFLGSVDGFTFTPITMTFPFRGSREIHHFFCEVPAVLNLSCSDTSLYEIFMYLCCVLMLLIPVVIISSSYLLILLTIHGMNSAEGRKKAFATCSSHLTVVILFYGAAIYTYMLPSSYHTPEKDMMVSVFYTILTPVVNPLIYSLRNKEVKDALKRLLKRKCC
From the text: as §1

OR2T11 [7] = biological target: T7, OR2T11 (Homo sapiens, UniProt Q8NH01); test: cell-based; type: cell-based
T7 construct: expressed in transfected cells; host or cells: HEK293T stably expressing human RTP1S(V227I) and RTP2(L220R)
From the text: as §1
T7 sequence (Q8NH01 whole entry): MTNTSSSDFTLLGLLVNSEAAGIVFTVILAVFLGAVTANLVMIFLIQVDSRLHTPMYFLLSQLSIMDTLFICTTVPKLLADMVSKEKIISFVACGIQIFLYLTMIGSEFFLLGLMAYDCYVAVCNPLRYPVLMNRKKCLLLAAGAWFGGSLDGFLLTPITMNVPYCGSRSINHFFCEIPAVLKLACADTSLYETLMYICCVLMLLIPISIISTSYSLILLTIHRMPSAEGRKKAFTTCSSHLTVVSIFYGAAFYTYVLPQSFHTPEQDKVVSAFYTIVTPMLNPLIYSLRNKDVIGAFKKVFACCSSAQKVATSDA

OR2T11 [8] = biological target: T8, OR2T11 (Homo sapiens, UniProt Q8NH01); test: cell-based; type: cell-based; remark: listed apart in the source
T8 construct: expressed in transfected cells; host or cells: HEK293T stably expressing human RTP1S(V227I) and RTP2(L220R)
From the text: as §1
T8 sequence (Q8NH01 with tags, fused parts or gaps): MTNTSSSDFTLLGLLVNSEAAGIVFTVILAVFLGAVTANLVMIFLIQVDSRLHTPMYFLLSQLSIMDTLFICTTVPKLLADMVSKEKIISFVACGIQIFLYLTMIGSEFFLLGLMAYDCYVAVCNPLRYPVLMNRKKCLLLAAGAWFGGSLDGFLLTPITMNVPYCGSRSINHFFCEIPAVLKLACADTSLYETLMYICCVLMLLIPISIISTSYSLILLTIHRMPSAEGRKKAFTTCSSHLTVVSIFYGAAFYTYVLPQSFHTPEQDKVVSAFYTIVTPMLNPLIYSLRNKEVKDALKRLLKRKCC

OR2T11 [9] = test: cell-based; type: cell-based, human
From the text: as §1

OR14J1 = biological target: T9, OR14J1 (Homo sapiens, UniProt Q9UGF5); test: Activation of modified OR14J1 (SEQ ID NO: 221), library hit and dose-response; type: cell-based; conditions: SEQ ID 221
T9 construct: expressed in transfected cells; host or cells: HEK293T stably expressing human RTP1S(V227I) and RTP2(L220R) (general method)
T9 sequence (Q9UGF5 with tags, fused parts or gaps): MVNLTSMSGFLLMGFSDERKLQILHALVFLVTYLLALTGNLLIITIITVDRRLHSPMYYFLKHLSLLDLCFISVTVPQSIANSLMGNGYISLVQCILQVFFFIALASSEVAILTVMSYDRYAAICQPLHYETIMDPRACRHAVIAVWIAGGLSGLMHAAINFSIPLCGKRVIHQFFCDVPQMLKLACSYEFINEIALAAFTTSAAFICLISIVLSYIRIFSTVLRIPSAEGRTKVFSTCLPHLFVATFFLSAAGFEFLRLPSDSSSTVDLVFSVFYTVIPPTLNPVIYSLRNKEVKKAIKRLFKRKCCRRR
Description: Parallel transfection experiments were conducted with all these plasmids (n = 408) and cells expressing the different OR were stimulated with one given ligand at a time, tested at the maximal, clearly non-cytotoxic concentration. In total 26 different ligands were tested on the full library of class II receptors.
Table 16. Ligands tested on the full library of OR and cognate receptors identified for these ligands

OR52E8 [10] = test: cell-based; type: cell-based, human
From the text: as §1

OR52E8 [11] = biological target: T10, OR52E8 (Homo sapiens, UniProt Q6IFG1); test: cell-based; type: cell-based; conditions: read-out: Potency EC50
T10 construct: expressed in transfected cells; host or cells: HEK293T stably expressing human RTP1S(V227I) and RTP2(L220R)
From the text: as §1

[12] = Potency EC50, changed C-term SEQ ID NO: 86

Structure (SMILES): CC1COCc2cc3c(cc21)C(C)(C)C(C)C3(C)C (centres unmarked) [Galaxolide]
concentration at which activation occurs (OR5A2 [1]; OR5A2 with SEQ ID NO: 86): < 0.01 µM
EC50 (OR5A2 [1]; [12]): 0.1 µM
Detection threshold; concentration for 2-fold induction (OR5A2 [1]; changed C-term. SEQ ID NO: 86): 0.0016 µM
EC50 (OR5A2 [2]; Potency EC50, wild-type): > 31 µM
Detection threshold; concentration for 2-fold induction (OR5A2 [2]; wild-type): n.i. (>> 31) µM
activation of the wild-type receptor (OR5A2 [2]; wild-type OR5A2): No activation
Comments on efficacy (OR5A2 [3]): No induction wild-type
Fold-improvement potency (OR5A2 [3]): >300
Fold-improvement threshold (OR5A2 [3]): >20000

Structure (SMILES): CC(=O)/C=C/C1=C(C)CCCC1(C)C [Beta-ionone]
EC50 (OR5A1 [4]): 3.1 µM
Detection threshold; concentration for 2-fold induction (OR5A1 [4]; changed C-term. SEQ ID NO: 86): 3.2 µM
EC50 (OR5A1 [5]): 5.5 µM
Detection threshold; concentration for 2-fold induction (OR5A1 [5]; wild-type): 19.1 µM
Comments on efficacy (OR5A1 [6]): 4-fold lower maximal induction for wild-type
Fold-improvement potency (OR5A1 [6]): 1.8
Fold-improvement threshold (OR5A1 [6]): 5.9

EC20% (OR10J5): 24.4 µM
Structure (SMILES): C/C(=C\CC[C@@H](C)CCO)CCC=O [(R,E)-10-hydroxy-4,8-dimethyldec-4-enal]

Structure (SMILES): C=CCSSCC=C [Diallyl disulfide]
ligands identified in screening of sulfur odorants (OR2T4): good ligands
EC50 (OR2T11 [7]; Potency EC50, wild-type): > 200 µM
Detection threshold; concentration for 2-fold induction (OR2T11 [7]; wild-type): >200 µM
EC50 (OR2T11 [8]; [12]): 6.51 µM
Detection threshold; concentration for 2-fold induction (OR2T11 [8]; changed C-term. SEQ ID NO: 86): 2.03 µM
Comments on efficacy (OR2T11 [9]): No induction wild-type
Fold-improvement potency (OR2T11 [9]): >>40
Fold-improvement threshold (OR2T11 [9]): >100

Structure (SMILES): CC(C)(O)[Si](C1CC1)(C1CC1)C1CC1 [2-(tricyclopropylsilyl)propan-2-ol]
activation of OR14J1 (OR14J1): activate OR14J1

EC20% (OR10J5): 10.1 µM
Structure (SMILES): C/C(=C\CC[C@H](C)CCO)CCC=O [(S,E)-10-hydroxy-4,8-dimethyldec-4-enal]

Comments on efficacy (OR52E8 [10]): No induction wild-type
EC50 (OR52E8 [11]; changed C-term SEQ ID NO: 86): 69 µM
EC50 (OR52E8 [11]; wild-type): > 316 µM
Structure (SMILES): CCCC(C)(O)CC(=O)O (centres unmarked) [3-Methyl-3-Hydroxy-Hexanoic acid]
Fold-improvement potency (OR52E8 [10]): >>5
Fold-improvement threshold (OR52E8 [10]): >>5
